Results from patent publication US7338950B2, “Amide compounds as ion channel ligands and uses thereof” (Renovis, Inc., priority 2003, dated 2008).

How the values were obtained:
[1] = target: T1, VR1 receptor (capsaicin induced current in dorsal root ganglion (DRG) neurons) (Rattus norvegicus, UniProt O35433); assay: Whole-cell patch clamp electrophysiology, capsaicin induced current in DRG neurons; type: cell-based; conditions: DRG neuron; 100 nM, treatment time 20 seconds; 500 nM capsaicin, rat DRG neurons
T1 construct: Dorsal root ganglion (DRG) neurons were recovered from either neonatal or adult rats; endogenous in cells; host or cells: primary rat dorsal root ganglion neurons
T1 sequence (O35433 whole entry): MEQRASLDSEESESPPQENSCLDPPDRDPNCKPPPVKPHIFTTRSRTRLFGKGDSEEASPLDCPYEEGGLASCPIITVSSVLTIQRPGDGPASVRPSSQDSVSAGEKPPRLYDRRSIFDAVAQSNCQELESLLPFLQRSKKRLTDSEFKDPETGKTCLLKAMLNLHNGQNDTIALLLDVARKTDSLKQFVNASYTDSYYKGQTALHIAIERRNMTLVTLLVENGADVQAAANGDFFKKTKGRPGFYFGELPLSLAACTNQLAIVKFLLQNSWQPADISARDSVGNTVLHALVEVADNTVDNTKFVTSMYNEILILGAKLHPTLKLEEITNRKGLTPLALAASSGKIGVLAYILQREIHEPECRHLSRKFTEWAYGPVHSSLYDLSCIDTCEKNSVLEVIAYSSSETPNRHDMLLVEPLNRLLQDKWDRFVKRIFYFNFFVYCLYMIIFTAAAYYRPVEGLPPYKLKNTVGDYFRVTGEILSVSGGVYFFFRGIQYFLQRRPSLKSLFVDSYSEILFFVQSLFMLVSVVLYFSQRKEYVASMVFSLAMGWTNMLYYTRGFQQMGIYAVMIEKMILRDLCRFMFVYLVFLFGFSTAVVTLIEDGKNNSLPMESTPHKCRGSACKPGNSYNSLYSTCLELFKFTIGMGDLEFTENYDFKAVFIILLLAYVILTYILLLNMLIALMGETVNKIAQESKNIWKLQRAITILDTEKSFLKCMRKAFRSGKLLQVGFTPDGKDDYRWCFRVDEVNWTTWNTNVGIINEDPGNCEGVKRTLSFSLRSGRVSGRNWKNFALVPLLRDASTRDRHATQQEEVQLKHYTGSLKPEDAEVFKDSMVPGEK
Description: Dorsal root ganglion (DRG) neurons were recovered from either neonatal or adult rats and plated onto poly-D-lysine coated glass coverslips. The plated neurons were transferred into a chamber to allow drug solutions to be added to the cells using a computer-controlled solenoid-valve based perfusion system. The cells were imaged using standard DIC optics. Cells were patched using finely-pulled glass electrodes. Voltage-clamp electrophysiology experiments were carried out using an Axon Instruments Multiclamp amplified controlled by pCLAMP8 software.
The cells were placed into a whole-cell voltage clamp and help at a voltage of −80 mV while monitoring the membrane current in gap-free recording mode. 500 nM capsaicin was added for 30 seconds as a control. Test compounds at various concentrations at ranging from (10-1000 nM) were added to the cells for 1 minute prior to a 30 second capsaicin application. Differences between control experiments and drug positive capsaicin experiments were used to determine the efficacy of each test compound. All compounds that inhibited capsaicin induced current greater than 50% were considered positives.

[2] = Plasma protein binding, equilibrium dialysis, human plasma; type: in vitro ADME; conditions: human plasma (sodium citrate), pH 7.4, 37° C., at least 22 hours, read-out: human plasma protein binding (% Bound)
Description: Membranes from Harvard/Amika with a molecular weight cutoff of 5,000 were rinsed with dH2O then placed in pH 7.4 PBS supplied by Gibco. The membranes were allowed to soak for 1 hour. A stock of the test article was pooled with Warfarin, Atropine at 2 mM in DMSO. The test article was then dosed into human plasma in sodium citrate, Rat Plasma, and Mouse Plasma to a final 10 μM concentration (0.5% DMSO v/v). The pre-soaked membranes were then placed into dialysis chambers. 500 μL of PBS was added to one side of the chamber, and 500 μL of the Matrix containing the test article was added to the other side of the chamber.
The chambers were then placed into an enclosed, heated rocker, which was pre-warmed to 37° C. and allowed to reach equilibrium for at least 22 hours. After 22 hours both sides were sampled. 100 μL of the donor side was added to 500 μL of PBS. 100 μL of the PBS side was added to 20 μL of fresh matrix. Samples then were crashed with 1:1 Acetonitrile and centrifuged at 10,000 RPM for 10 minutes. […]
Standards were prepared in a 1:5 plasma: PBS mixture at 5, 1.5, 0.5, 0.15, 0.05, 0.015 and 0.005 μM concentrations. […] Protein binding values were calculated as follows: % Bound=[(Concentration in Donor−Concentration in Receiver)/(Concentration in Donor)]×100. % Recovery=[(Concentration in donor+Concentration in Receiver)]/(Concentration in Normal Initial)]×100

[3] = target: T2, CYP1A2 (Homo sapiens, UniProt P05177); assay: Cytochrome p450 inhibition assessment, CYP1A2; type: biochemical; conditions: estimated, Hill equation fit
T2 sequence (P05177 1-516): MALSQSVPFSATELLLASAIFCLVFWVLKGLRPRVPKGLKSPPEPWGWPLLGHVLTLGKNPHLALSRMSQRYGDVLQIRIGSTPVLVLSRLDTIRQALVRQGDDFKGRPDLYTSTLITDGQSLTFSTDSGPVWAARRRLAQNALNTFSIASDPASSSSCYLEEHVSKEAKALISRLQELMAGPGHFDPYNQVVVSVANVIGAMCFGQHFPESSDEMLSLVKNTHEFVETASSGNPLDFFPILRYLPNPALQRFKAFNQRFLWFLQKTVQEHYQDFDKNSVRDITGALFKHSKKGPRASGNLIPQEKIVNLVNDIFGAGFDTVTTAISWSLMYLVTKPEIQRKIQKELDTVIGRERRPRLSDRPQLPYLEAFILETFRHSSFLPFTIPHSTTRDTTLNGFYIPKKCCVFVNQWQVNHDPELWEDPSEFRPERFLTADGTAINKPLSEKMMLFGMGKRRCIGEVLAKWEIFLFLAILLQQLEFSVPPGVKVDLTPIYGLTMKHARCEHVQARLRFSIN
Description: (§1) The ability of test compounds to inhibit five major human cytochrome p450 isozymes was evaluated. Cytochrome p450 inhibition assays were performed on 96-well microtiter assay plates according to the protocols described in Gentest P450 inhibition instruction manuals. The assays were performed in duplicate at 8 concentrations with the upper concentration of 100 μM followed by a 1:3 serial dilution. Reactions were initiated by the addition of 100 μL of enzyme/substrate mix to 100 μL of cofactor/serial dilution mix, and terminated by addition of 75 μL of a 4:1 acentonitrile: 0.5 M Tris base solution or by 2N NaOH for CYP3A4/DBF. Fluorescence was measured using a fluorescence plate reader (FLUOstar model 403, BMG Lab Technologies, Durham, N.C.). For reactions with inhibition greater than 50%, IC50 values were determined by fitting the data to the Hill equation using software GraphPad Prism (Version 4.02, GraphPad Software, San Diego, Calif.).

[4] = Pharmacokinetic profile after intravenous and oral administration; type: in vivo; conditions: male, Sprague-Dawley, rat, plasma, rats
Description: The pharmacokinetic profile of Compound 18 was evaluated following intravenous and oral administration in rats. Sprague-Dawley male rats obtained from Charles River, San Diego, Calif. were acclimated for 24 hours.
Compound 18 was formulated at a concentration of 0.5 mg/mL for IV administration at a 1 mg/kg dose and 1 mg/mL for oral administration at a 5 mg/kg dose. All animals were weighed before dosing. The body weight was used to calculate the actual dose for each animal. The intravenous dose was administered through the jugular vein catheter in less than 1 minute. The oral dose volume was 1.5 mL for all PO rats administered through oral lavage.
For IV dosing, blood samples were collected using a pre-heparinized syringe via the carotid artery catheter before dosing and at t=2, 5, 15, 30, 60, 120, 180, 360, and 480 minutes post dosing. For PO dosing, blood samples were collected using a pre-heparinized syringe via the carotid artery catheter before dosing and at t=5, 15, 30, 60, 120, 180, 360, and 480 minutes post dosing. 250 uL of blood was obtained at each time point from each animal. Equal volumes of 0.9% normal saline were replaced to prevent dehydration. The whole blood samples were maintained on ice until centrifugation. Blood samples were centrifuged at 14,000 rpm for 10 minutes at 4° C., and the upper plasma layer was transferred into a clean vial and store at −80° C.

[5] = target: CYP2C19 (Homo sapiens, UniProt P33261); assay: Cytochrome p450 inhibition assessment, CYP2C19; type: biochemical; conditions: estimated, Hill equation fit
CYP2C19, sequence (P33261 whole entry): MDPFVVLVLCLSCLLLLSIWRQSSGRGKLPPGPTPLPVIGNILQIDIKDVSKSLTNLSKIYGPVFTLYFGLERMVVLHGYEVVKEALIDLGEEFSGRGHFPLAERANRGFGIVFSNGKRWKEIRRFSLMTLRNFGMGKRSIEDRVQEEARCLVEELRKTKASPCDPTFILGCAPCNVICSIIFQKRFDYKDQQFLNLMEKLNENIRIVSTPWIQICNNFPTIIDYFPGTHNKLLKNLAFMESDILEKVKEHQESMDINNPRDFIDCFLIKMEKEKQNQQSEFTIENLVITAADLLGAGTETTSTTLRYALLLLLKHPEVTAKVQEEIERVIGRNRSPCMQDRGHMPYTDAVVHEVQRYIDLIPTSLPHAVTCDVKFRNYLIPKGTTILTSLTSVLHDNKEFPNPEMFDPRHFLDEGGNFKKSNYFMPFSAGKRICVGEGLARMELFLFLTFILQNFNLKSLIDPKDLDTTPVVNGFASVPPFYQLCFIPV
Description: as §1

[6] = route not stated (IV 1 mg/kg, PO 5 mg/kg)

**Q.** Which inhibition at 0.1 µM [1] does the source give for `COc1ccc(CCNC(=O)c2ccc(-c3ncccc3Cl)cc2)cc1OC` [Compound 18] here?
**A.** < 75%

**Q.** And the fraction unbound at 22 h, 10 µM [2]?
**A.** < 0.002

**Q.** And the IC50 [3]?
**A.** 97.5 µM

**Q.** What about the bioavailability ([4]; PO 5 mg/kg vs IV 1 mg/kg, read-out: Oral Bioavailability (% F)) of the same compound?
**A.** 30.1%

**Q.** And the Cmax [4, 6]?
**A.** 1750 nM

**Q.** And the Tmax [4, 6]?
**A.** 3 h

**Q.** And the clearance ([4]; route not stated (IV 1 mg/kg, PO 5 mg/kg), read-out: Clearance (Cl) (converted))?
**A.** 8.83 mL/min/kg

**Q.** What about the Vd ([4]; route not stated (IV 1 mg/kg, PO 5 mg/kg), read-out: Volume of distribution (Vd)) of the same compound?
**A.** 2.82 L/kg

**Q.** And the half-life ([4]; route not stated (IV 1 mg/kg, PO 5 mg/kg), read-out: half life (t½) (converted))?
**A.** 223 min

**Q.** And the IC50 [5]?
**A.** 26.9 µM
